The text below walks through data of patent publication US7618996B2, “Diaryl ether derivatives and uses thereof” (Pfizer Inc., priority 2006, dated 2009).

The nature of data set [1]: Pharmacokinetic experiment, IV in rats. Conditions: male JVC/CAC rats, 1 mg/kg IV; for half-life / clearance / Vd: rat, plasma; for clearance: average of two rats; for Vd: read-out: volume of distribution. The class given is in vivo, rat. The protocol: A representative compound of the present invention (Example 1A) and a comparator compound (Example 2A) were individually dosed into two different male JVC/CAC rats at 1 mg/kg in a 10% ethanol and 90% (30% beta-cyclodextrin sulfobutylether) vehicle. Blood was subsequently collected at 0.083, 0.25, 0.5, 1, 2, 4, 6, 8 and 20 hours post IV administration. After spinning the blood samples down to get plasma, the plasma concentrations were determined by LC/MS/MS. The pharmacokinetic (PK) analysis was determined by inputting the resultant time concentration data into a Watson™ Laboratory Information Management System (LIMS).

The target in data set [2] is T1, mu opioid receptor (Homo sapiens, UniProt P35372). The data set can be described thus: GTPγ[35S] binding assay at mu opioid receptor (antagonist vs β-endorphin). The class given is biochemical. Also noted: expressed in transfected cells. The conditions noted are these: average Ki; membranes, challenged with β-endorphin (1 μM). The protocol:
(§1) GTPγ[^35S] Binding Assays at Opioid Receptors
(§2) Membranes were prepared from cells as described (Bass et al, 1996). GTPγ[^35S] binding assays were performed in a 96 well FlashPlate™ format in duplicate using 100 pM GTPγ[^35S] and 5 μg membrane per well in assay buffer composed of 50 mM Tris HCl, pH 7.4, 5 mM MgCl2, 1 mM EDTA, 100 mM NaCl, 30 μM GDP, 0.1% bovine serum albumin and the following protease inhibitors: 100 μg/ml bacitracin, 100 μg/ml benzamidine, 5 μg/ml aprotinin, 5 μg/ml leupeptin. The assay mix was then incubated at 30° C. with increasing concentrations of antagonist (10^−10 M to 10^−5 M) for 10 minutes and challenged with the agonists BW-373U86 (1 nM), dynorphin-A (10 nM), β-endorphin (1 μM) for opioid receptors delta, kappa, and mu, respectively. The assays were performed at 30° C. for one hour. The FlashPlates were then centrifuged at 2000×g for 10 minutes. Stimulation of GTPγ[^35S] binding was then quantified using a Wallac Microbeta and Ki calculations were done using Prism™ by Graphpad. […] Each of the compounds listed below were tested as their hydrochloride salts unless indicated otherwise. Those Example Numbers with an asterisk (*) were tested as their free base.

The target of data set [3] is T2, kappa opioid receptor (Homo sapiens, UniProt P41145). The data set can be described thus: GTPγ[35S] binding assay at kappa opioid receptor (antagonist vs dynorphin-A). The conditions noted are these: average Ki; membranes, challenged with dynorphin-A (10 nM). The class given is biochemical. Set-up: expressed in transfected cells. On the procedure: as §1, §2
On the technique in general: Binding of GTPγS marks nucleotide exchange on a G protein.

For data set [4], the target named is T3, delta opioid receptor (Homo sapiens, UniProt P41143). The data set can be described thus: GTPγ[35S] binding assay at delta opioid receptor (antagonist vs BW-373U86). The class given is biochemical. Also noted: expressed in transfected cells. Conditions: average Ki; membranes, challenged with BW-373U86 (1 nM). On the procedure:
as §1, §2

The conditions of data set [5]: literature (Shaw 1991, 1993; Levine 1991); cited from earlier work.
Data set [6] has as its target T1, mu opioid receptor. Conditions: literature (Statnick 2003; Zimmerman 1993); cited from earlier work.
Data set [7] deals with T2, kappa opioid receptor. Conditions: literature (Statnick 2003; Zimmerman 1993); cited from earlier work.
The target in data set [8] is T3, delta opioid receptor. Conditions: compared with mu and kappa; literature; cited from earlier work.

Where a name gives a salt, the structure may show the parent alone.

T1 sequence (P35372 whole entry): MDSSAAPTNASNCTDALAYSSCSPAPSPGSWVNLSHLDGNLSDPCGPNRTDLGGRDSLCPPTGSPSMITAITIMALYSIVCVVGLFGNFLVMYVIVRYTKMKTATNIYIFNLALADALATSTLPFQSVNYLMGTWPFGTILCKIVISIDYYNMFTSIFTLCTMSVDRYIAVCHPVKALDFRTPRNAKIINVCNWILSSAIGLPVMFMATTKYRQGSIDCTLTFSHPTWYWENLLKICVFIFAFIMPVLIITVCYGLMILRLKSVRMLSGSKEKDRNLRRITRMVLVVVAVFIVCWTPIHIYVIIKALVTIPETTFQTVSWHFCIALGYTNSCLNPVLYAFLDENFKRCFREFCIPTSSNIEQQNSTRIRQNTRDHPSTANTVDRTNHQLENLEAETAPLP
T3 sequence (P41143 whole entry): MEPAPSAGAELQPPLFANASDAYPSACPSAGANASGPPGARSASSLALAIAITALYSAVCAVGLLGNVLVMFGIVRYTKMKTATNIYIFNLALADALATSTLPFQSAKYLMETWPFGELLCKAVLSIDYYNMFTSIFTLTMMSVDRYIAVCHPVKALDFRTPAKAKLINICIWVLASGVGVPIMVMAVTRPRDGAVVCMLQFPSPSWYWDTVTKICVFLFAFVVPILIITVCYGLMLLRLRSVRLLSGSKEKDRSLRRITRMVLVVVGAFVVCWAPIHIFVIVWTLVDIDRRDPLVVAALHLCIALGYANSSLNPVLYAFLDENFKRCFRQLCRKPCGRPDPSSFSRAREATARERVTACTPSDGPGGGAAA
T2 sequence (P41145 whole entry): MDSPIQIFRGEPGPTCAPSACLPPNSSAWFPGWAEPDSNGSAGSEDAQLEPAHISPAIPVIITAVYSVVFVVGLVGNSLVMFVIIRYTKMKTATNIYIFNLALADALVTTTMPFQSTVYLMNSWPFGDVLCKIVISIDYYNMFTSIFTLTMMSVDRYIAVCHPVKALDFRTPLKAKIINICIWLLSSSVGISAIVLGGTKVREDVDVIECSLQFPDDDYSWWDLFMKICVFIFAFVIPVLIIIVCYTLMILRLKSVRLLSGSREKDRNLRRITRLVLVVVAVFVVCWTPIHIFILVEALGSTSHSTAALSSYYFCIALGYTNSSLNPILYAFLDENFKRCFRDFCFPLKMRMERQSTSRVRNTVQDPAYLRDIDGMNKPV

Turning to `CC(C)CCNCc1ccc(Oc2ccc(C(N)=O)c(O)c2)c(F)c1` [Example 1A, 4-(2-fluoro-4-{[(3-methylbutyl)amino]methyl}phenoxy)-2-hydroxybenzamide, hydrochloride salt], in data set [1], the half-life (commonly how long it takes for the measured level to halve) is 2.9 h, the clearance (commonly the volume of plasma or blood freed of the substance per unit of time) was 18.6 mL/min/kg and the Vd is 2 L/kg. Also, the affinity on mu opioid receptor [2] corresponds to a Ki of 0.335 nM. Also, at kappa opioid receptor [3], the Ki – broadly, the equilibrium dissociation constant of an inhibitor or competing ligand from its target – came to 0.652 nM. Besides, affinity at delta opioid receptor [4] was put at a Ki of 0.64 nM.
Turning to `CC(C)CCNCc1ccc(Oc2cccc(O)c2)c(F)c1.Cl` [Example 2A, 3-(2-fluoro-4-{[(3-methylbutyl)amino]-methyl}phenoxy)phenol, hydrochloride salt], in data set [1], the “clearance relative to hepatic blood flow” value was “approximately 5 times hepatic blood flow”, the half-life is 0.7 h, the clearance came to 361 mL/min/kg and the Vd worked out at 10 L/kg. This compound also came in with a Ki at mu opioid receptor [2] of 16.7 nM. Moreover, on kappa opioid receptor [3], affinity was put at a Ki of 47.1 nM. In addition, the affinity on delta opioid receptor [4], expressed as Ki, was 25.4 nM.
With `NC(=O)c1ccc(Oc2ccc(CNCCC3CC3)cc2F)cc1O` [Example 3A, 4-(4-{[(2-cyclopropylethyl)amino]methyl}-2-fluorophenoxy)-2-hydroxybenzamide, hydrochloride salt], the results for the Ki on mu opioid receptor [2], at kappa opioid receptor [3] and at delta opioid receptor [4] were 0.312 nM, 0.39 nM and 0.62 nM, respectively.
Take `NC(=O)c1ccc(Oc2ccc(CNC3Cc4ccccc4C3)cc2F)cc1O` [Example 3B]: the Ki at mu opioid receptor [2] was found to be 0.00412 nM; at kappa opioid receptor [3], 0.0348 nM; at delta opioid receptor [4] it was 0.041 nM.
Taken in the same sequence, the figures for `CC(C)OCCNCc1ccc(Oc2ccc(C(N)=O)c(O)c2)c(F)c1` [Example 3C] were 1.65 nM, 3.78 nM and 1.68 nM.
For `NC(=O)c1ccc(Oc2ccc(CNCCOc3ccccc3)cc2F)cc1O` [Example 3D], in that order: 0.92 nM, 5.35 nM and 0.687 nM.
Taken in the same sequence, the figures for `NC(=O)c1ccc(Oc2ccc(CNCC3CCCO3)cc2F)cc1O` (stereo not shown) [Example 3E] were 1.17 nM, 0.47 nM and 3.25 nM.
In the case of `NC(=O)c1ccc(Oc2ccc(CNC[C@@H]3CCCO3)cc2F)cc1O` [Example 3F], the results for the Ki at mu opioid receptor [2], at kappa opioid receptor [3] and on delta opioid receptor [4] were 0.855 nM, 0.235 nM and 2.23 nM, respectively.
With `NC(=O)c1ccc(Oc2ccc(CNC[C@H]3CCCO3)cc2F)cc1O` [Example 3G], the Ki stood at 3.91 nM on mu opioid receptor [2], 1.09 nM at kappa opioid receptor [3] and 10.3 nM at delta opioid receptor [4].
Taken in the same sequence, the figures for `NC(=O)c1ccc(Oc2ccc(CNCC3CCOCC3)cc2F)cc1O` [Example 3H] were 4.9 nM, 1.56 nM and 3.02 nM.
As for `NC(=O)c1ccc(Oc2ccc(CNCC3(O)CCCCC3)cc2F)cc1O` [Example 3I], the Ki at mu opioid receptor [2] was 0.158 nM; at kappa opioid receptor [3], 0.215 nM; on delta opioid receptor [4], 3.33 nM.
Turning to `CC[C@@H](NCc1ccc(Oc2ccc(C(N)=O)c(O)c2)c(F)c1)c1ccccn1` [Example 3J], the inhibition constant (Ki) came to 26.2 nM on mu opioid receptor [2], 13.8 nM on kappa opioid receptor [3] and 16.6 nM at delta opioid receptor [4].
`CC(C)CCNCc1cc(F)c(Oc2ccc(C(N)=O)c(O)c2)c(F)c1` [Example 4A, 4-(2,6-difluoro-4-{[(3-methybutyl)amino]methyl}phenoxy)-2-hydroxybenzamide]: the figures for the Ki at mu opioid receptor [2], on kappa opioid receptor [3] and on delta opioid receptor [4] were 0.094 nM, 0.164 nM and 0.465 nM, respectively.
For `NC(=O)c1ccc(Oc2c(F)cc(CNC3CCCCC3)cc2F)cc1O` [Example 4B], in that order: 0.0772 nM, 0.0731 nM and 0.866 nM.
As to `NC(=O)c1ccc(Oc2c(F)cc(CNCCC3CC3)cc2F)cc1O` [Example 4C], the figures for the Ki on mu opioid receptor [2], at kappa opioid receptor [3] and on delta opioid receptor [4] were 0.167 nM, 0.244 nM and 1.1 nM, respectively.
For `NC(=O)c1ccc(Oc2c(F)cc(CNC[C@@H]3CCCO3)cc2F)cc1O` [Example 4D], in that order: 0.346 nM, 0.184 nM and 4.87 nM.
Take `NC(=O)c1ccc(Oc2c(F)cc(CNCCC3CCOCC3)cc2F)cc1O` [Example 4E]: the Ki at mu opioid receptor [2] was determined as 0.0963 nM; on kappa opioid receptor [3], 0.419 nM; on delta opioid receptor [4] it was 0.352 nM.
As to `NC(=O)c1ccc(Oc2c(F)cc(CNC3Cc4ccccc4C3)cc2F)cc1O` [Example 4F], the Ki on kappa opioid receptor [3] amounted to 0.0848 nM; at delta opioid receptor [4], 0.0543 nM.
Consider `C[C@H]1CN(CC[C@H](O)C2CCCCC2)CC[C@@]1(C)c1cccc(O)c1` [LY255582], for which the anorectic effects entry in data set [5] is on record as “robust anorectic effects”.
As for `CC1CNCCC1(C)c1cccc(O)c1` (stereo not shown) [LY515300, 3,4-dimethyl-4-(3-hydroxyphenyl)piperidine], at mu opioid receptor [6], the “binding affinity for the mu-opioid receptor subtype” value is listed as “sub-nanomolar”. Also, the “binding affinity for the kappa-opioid receptor subtype” value at kappa opioid receptor [7] is recorded as “sub-nanomolar”. Besides, on delta opioid receptor [8], the “affinity for the delta-opioid receptor” value is on record as “lower affinity”.
